# Assay results: patent US10392346B2, “Kinase inhibitors” (Topivert Pharma Limited, priority 2014, dated 2019)
# Where a name gives a salt, the structure may show the parent alone.
# Experiments:
# Jurkat cells = experiment: Cell cytotoxicity assay (assay r); assay type: cell-based, human; conditions: 24 hours
# Protocol: 1×10^5 Jurkat cells (immortalised human T lymphocytes) are added to the appropriate number of wells of a 96 well plate in 100 μL of media (RPMI supplemented with 10% foetal bovine serum). 1 μL of DMSO control (final concentration 1.0% v/v) or test compound (final concentration 20, 5 or 1 μg/mL) is added to the wells and incubated at 37° C., 5% CO2. After 24 hours, the plate is centrifuged at 1200 rpm for 3 minutes and the supernatant discarded. Cells are then resuspended in 150 μL (final concentration 7.5 μg/mL) of propidium iodide (PI) in PBS and incubated at 37° C., 5% CO2 for 15 minutes. After 15 minutes, cells are analysed by flow cytometry (BD accuri) using the FL3 window. The % viability is calculated as the % of cells that are PI negative in the test wells normalised to the DMSO control.
# Crohn's patients = conditions: transient, baseline by week 8; cited from earlier work
# [1] = tested on: patients with severe Crohn's disease; conditions: over 8 weeks; cited from earlier work
# [2] = tested on: eyes of albino New Zealand White rabbits; conditions: Phase 1, one treatment day, 0.1 and 1.0 mg/mL
# [3] = Stability of pharmaceutical formulations; assay type: physicochemical; conditions: for Purity (%) at week n = 4: 4 weeks
# Protocol: The samples were sonicated to achieve clear solutions having the following properties: Osmolality (mOsm/kg): 310 (Na), 314 (HCl); pH: 7.00 (Na), 7.05 (HCl). 0.5 mL of the stock solutions were diluted to 1 mL with 20% DMSO in water & injected for purity analysis by HPLC. The remaining stock solutions were then split into aliquots of 0.5 mL in HPLC vials, and stored at various conditions in duplicate. Samples were stored at 5 and 25° C., before being analysed by HPLC at 1, 2 and 4 weeks. Separate samples were stored at 40° C. and analysed at 4 weeks.
# [4] = tested on: Escherichia coli, WP2 uvrA; experiment: Bacterial reverse mutation screen (plate incorporation); conditions: for mutagenic effects (revertant numbers): presence and absence of S-9 mix
# LPS-stimulated rats = experiment: Endotoxin-induced uveitis in rats (assay vi); assay type: in vivo, rat; conditions: rats treated with intravitreal endotoxin LPS
# Protocol: Male, Lewis rats (6-8 weeks old, Charles River UK Limited) are housed in cages of 3 at 19-21° C. with a 12 h light/dark cycle (07:00/19:00) and fed a standard diet of rodent chow and water ad libitum. Non-fasted rats are weighed, individually identified on the tail with a permanent marker, and receive a single intravitreal administration into the right vitreous humor (5 μL dose volume) of 100 ng/animal of LPS (Escherichia coli 0111:B4 prepared in PBS, Sigma Aldrich, UK) using a 32-gauge needle. Untreated rats are injected with PBS. Test compound or vehicle (4% polyoxyl 40 stearate, 4% mannitol in PBS (pH 7.4)) are administered by the topical route onto the right eye (10 μL) of animals 1 hour prior to LPS, at the time of LPS administration, and 1, 2 and 4 hours post LPS administration. Before administration, the solution to be administered is sonicated to ensure a clear solution. 6 hours after LPS dosing, animals are euthanized by overdose with pentobarbitone (via cardiac puncture) Immediately after euthanasia, 10 μL of aqueous humor is collected from the right eye of the rats by puncture of the anterior chamber using a 32 gauge needle under a surgical microscope. The aqueous humor is diluted in 20 μL of PBS and total cell counts are measured immediately using a Countess automated cell counter (Invitrogen). […]
# [5] = tested on: Salmonella typhimurium, strains TA1535, TA1537, TA98 and TA100; experiment: Bacterial reverse mutation screen (plate incorporation); conditions: for limit of solubility in the mutation test: all strains; for limit of solubility in the mutation test / mutagenic effects (revertant numbers): presence and absence of S-9 mix; for toxicity to the bacteria (mean colony count): at 500-5000 μg/plate in some strains
# non-mutant kinases = experiment: KinomeScan selectivity scores; assay type: binding; conditions: for KinomeScan Selectivity Score S(1): kinases with % Ctrl <1 / kinases tested; for KinomeScan Selectivity Score S(10): kinases with % Ctrl <10 / kinases tested; for kinase selectivity compared to the Reference Compound: KINOMEscan selectivity scores
# Excerpt: These assays may be conducted by DiscoverX (formerly Ambit; San Diego, Calif.).
# [6] = Hydrolytic stability study; assay type: physicochemical; conditions: 1 mg/mL; for % Parent Remaining: DMSO/water (3:1)
# Protocol: Chemical stability of compounds of the invention was assessed in a mixture of DMSO and water (3:1) at a test compound concentration of 1 mg/mL.
# General HPLC Procedure • Agilent, Waters X-Select C18, 2.5 μm, 4.6×30 mm column, 4 min method, 5-95% MeCN/water (0.1% formic acid). Flow rate 2.5 mL/min. Column Oven Temperature 40° C. Detection 254 nm.
# Sample Preparation • A 1.0 mg sample of test compound was dissolved in 750 μL of DMSO. Water (250 μL) was added slowly, ensuring no precipitation occurred.
# Recording Stability • A 50 μL aliquot of the test solution was removed and analysed in duplicate by 5 μL HPLC injections. The peak area for the test compound was recorded following manual integration of the corresponding UV trace. • The test solution was heated to 60° C., with stirring, and 50 μL aliquots removed for HPLC analysis at 5 and 24 h timepoints.
# [7] = tested on: rheumatoid arthritis patients; conditions: cited from earlier work
# [8] = 60° C., 24 h timepoint (1429-1450 min)
smiles,measurement,setting,value
"COc1cc(Nc2cc(Oc3ccc(NC(=O)Nc4cc(C(C)(C)C)cc(NS(C)(=O)=O)c4OC)c4ccccc34)ccn2)ccc1C(=O)NC[C@@H]1O[C@H](CO)[C@@H](O)[C@H](O)[C@H]1O [17(co), 4-((4-((4-(3-(5-(tert-Butyl)-2-methoxy-3-(methylsulfonamido)phenyl)ureido)naphthalen-1-yl)oxy)pyridin-2-yl)amino)-2-methoxy-N-(((2S,3R,4R,5S,6R)-3,4,5-trihydroxy-6-(hydroxymethyl)tetrahydro-2H-pyran-2-yl)methyl)benzamide]",% Viability at 1 μg/mL,Jurkat cells,74.3%
Cc1ccc(-n2nc(C(C)(C)C)cc2NC(=O)Nc2ccc(OCCN3CCOCC3)c3ccccc23)cc1 [BIRB796],clinical benefit (C-reactive protein levels),Crohn's patients,improvement in C-reactive protein levels
C/C(=N\N=C(N)N)c1cc(NC(=O)CCCCCCCCC(=O)Nc2cc(/C(C)=N/N=C(N)N)cc(/C(C)=N/N=C(N)N)c2)cc(/C(C)=N/N=C(N)N)c1.Cl.Cl.Cl.Cl [CNI-1493],clinical score,[1],significant improvement in clinical score
"COc1cc(Nc2cc(Oc3ccc(NC(=O)Nc4cc(C(C)(C)C)cc(NS(C)(=O)=O)c4OC)c4ccccc34)ccn2)ccc1C(=O)O [Example 1, 4-((4-((4-(3-(5-(tert-Butyl)-2-methoxy-3-(methylsulfonamido)phenyl)ureido)naphthalen-1-yl)oxy)pyridin-2-yl)amino)-2-methoxybenzoic acid]",ocular reactions versus vehicle controls,[2],"no differences in the frequency, severity and incidence"
same,stability in solution,"[3]; 1 mg/mL Na and HCl salts, 10 mM pH 7.2 phosphate buffer, 4.5% mannitol, 3% polyoxyl 40 stearate, 5° C., up to 4 weeks",stable
same,mutagenic effects (revertant numbers),[4],absence of any mutagenic effects
same,cellular infiltration (cell counts) in the eyes,LPS-stimulated rats,significantly and dose-dependently reduced
same,cytokine IL-1β levels in anterior and posterior segments of the eyes,LPS-stimulated rats,significantly and dose-dependently reduced
same,limit of solubility in the mutation test,[5],1500 μg/plate
same,toxicity to the bacteria (mean colony count),[5],reduction in the mean colony count
same,mutagenic effects (revertant numbers),[5],absence of any mutagenic effects
"COc1cc(Nc2cc(Oc3ccc(NC(=O)Nc4cc(C(C)(C)C)cc(NS(C)(=O)=O)c4OC)c4ccccc34)ccn2)ccc1C(=O)O.Cl [Example 1, hydrochloride salt, 4-((4-((4-(3-(5-(tert-butyl)-2-methoxy-3-(methylsulfonamido)phenyl)ureido)naphthalen-1-yl)oxy)pyridin-2-yl)amino)-2-methoxybenzoic acid, hydrochloride salt]",Purity (%) at week n = 2,"[3]; 1 mg/mL buffered solution stored at 5° C., 2 weeks, duplicate samples, hydrochloride salt",98.0%
same,Purity (%) at week n = 4,"[3]; 1 mg/mL buffered solution stored at 5° C., duplicate samples, hydrochloride salt",98.0%
same,Purity (%) at week n = 1,"[3]; 1 mg/mL buffered solution stored at 25° C., 1 week, duplicate samples",98.0%
"COc1cc(Nc2cc(Oc3ccc(NC(=O)Nc4cc(C(C)(C)C)cc(NS(C)(=O)=O)c4OC)c4ccccc34)ccn2)ccc1C(=O)O [Example 1, sodium salt]",Purity (%) at week n = 4,"[3]; 1 mg/mL buffered solution stored at 40° C., duplicate samples",76.0%
"COc1cc(Nc2cc(Oc3ccc(NC(=O)Nc4cc(C(C)(C)C)cc(NS(C)(=O)=O)c4OC)c4ccccc34)ccn2)cc(OC)c1C(=O)NCCOCCOCCO [Example 36, 4-((4-((4-(3-(5-(tert-Butyl)-2-methoxy-3-(methylsulfonamido)phenyl)ureido)naphthalen-1-yl)oxy)pyridin-2-yl)amino)-N-(2-(2-(2-hydroxyethoxy)ethoxy)ethyl)-2,6-dimethoxybenzamide]",KinomeScan Selectivity Score S(1),non-mutant kinases; 50 nM,0.002
same,KinomeScan Selectivity Score S(10),non-mutant kinases; 50 nM,0.050
same,KinomeScan Selectivity Score S(1),non-mutant kinases; 500 nM,0.079
same,kinase selectivity compared to the Reference Compound,non-mutant kinases,improved selectivities
"COc1cc(Nc2cc(Oc3ccc(NC(=O)Nc4cc(C(C)(C)C)cc(NS(C)(=O)=O)c4OC)c4ccccc34)ccn2)ccc1P(C)(=O)O [Example 44, (4-((4-((4-(3-(5-(tert-Butyl)-2-methoxy-3-(methylsulfonamido)phenyl)ureido)naphthalen-1-yl)oxy)pyridin-2-yl)amino)-2-methoxyphenyl)(methyl)phosphinic acid]",% Parent Remaining,[6]; [8],98%
same,% Parent Remaining,[6]; time 0 min,100%
same,toxicity to the bacteria (mean colony count),"[4]; 5000 μg/plate, absence of S-9 mix",reduction in the mean colony count
same,mutagenic effects (revertant numbers),[4],absence of any mutagenic effects
same,limit of solubility in the mutation test,[5],5000 μg/plate
same,toxicity to the bacteria (mean colony count),[5],reduction in the mean colony count
same,mutagenic effects (revertant numbers),[5],absence of any mutagenic effects
"COc1cc(Nc2cc(Oc3ccc(NC(=O)Nc4cc(C(C)(C)C)cc(NS(C)(=O)=O)c4OC)c4ccccc34)ccn2)cc(OC)c1C(=O)NCCOCCOCCOP(=O)(O)O [Example 47, 2-(2-(2-(4-((4-((4-(3-(5-(tert-butyl)-2-methoxy-3-(methylsulfonamido)phenyl)ureido)-naphthalen-1-yl)oxy)pyridin-2-yl)amino)-2,6-dimethoxybenzamido)ethoxy)ethoxy)ethyl dihydrogen phosphate]",KinomeScan Selectivity Score S(10),non-mutant kinases; 50 nM,0.042
same,KinomeScan Selectivity Score S(1),non-mutant kinases; 500 nM,0.074
same,kinase selectivity compared to the Reference Compound,non-mutant kinases,improved selectivities
same,% Parent Remaining,[6]; [8],89%
same,% Parent Remaining,[6]; time 0 min,100%
COc1cc(Nc2ncc(F)c(Nc3ccc4c(n3)N(COP(=O)(O)O)C(=O)C(C)(C)O4)n2)cc(OC)c1OC [Fostamatinib],clinical outcome and serum IL-6 and MMP-3,[7],improved clinical outcome and reduced serum levels of IL-6 and MMP-3
"C#Cc1cc(Nc2nccc(Oc3ccc(NC(=O)Nc4cc(C(C)C)nn4-c4ccc(C)cc4)c4ccccc34)n2)cc(C(=O)NCCN2CCOCC2)c1 [Reference Compound B, 3-ethynyl-5-((4-((4-(3-(3-isopropyl-1-(p-tolyl)-1H-pyrazol-5-yl)ureido)naphthalen-1-yl)oxy)pyrimidin-2-yl)amino)-N-(2-morpholinoethyl)benzamide, reference compound]",decomposition (hydrolytic stability),"[6]; DMSO and water (3:1), 60° C., 5 and 24 h",underwent substantial decomposition
same,% Parent Remaining,"[6]; 60° C., 5 h timepoint (297-317 min)",79%
same,% Parent Remaining,[6]; [8],18%
same,% Parent Remaining,[6]; time 0 min,100%
